Laboratory results: article PMC5864073, “A D-enantiomer of the antimicrobial peptide GL13K evades antimicrobial resistance in the Gram positive bacteria Enterococcus faecalis and Streptococcus gordonii” (PLoS ONE, 2018)
Where a SMILES comes first, the peptide text is derived from it.

Columns and labels:
S. gordonii DL1 dltA = experiment: Minimal inhibitory concentration, broth dilution; assay type: cell-based, Streptococcus gordonii; settings: THB, 20 h, 37°C, OD600, mean ± SEM
Description: (§1) The minimal inhibitory concentration (MIC) assays were performed essentially as described for cationic AMPs, but using streptococcal growth-friendly THB without the addition of blood or serum components. A working stock of 1-5x10^5 CFU/ml in 90 or 100 μl THB was added to 10 or 20 μl of a 2-fold serial peptide dilution in 0.01% acetic acid and incubated for 20 h at 37°C in 96-well polypropylene plates. The OD at 600 nm (OD600) was determined in a Synergy HT plate reader (BioTek, Winooski, VT). Control wells for growth without peptide and growth medium without bacteria were included. Bacterial cell numbers in the inoculum were verified by colony count.

S. gordonii DL1 atlS = experiment: Minimal inhibitory concentration, broth dilution; assay type: cell-based, Streptococcus gordonii; settings: THB, 20 h, 37°C, OD600, mean ± SEM
Description: as §1

[1] = system: E. faecalis OG1RF::pMSP7551+nisin; experiment: Minimal inhibitory concentration, broth dilution; assay type: cell-based, Enterococcus faecalis; design: key: >: Mean MIC is above the tested concentration range (this value was set at 200 mg/L for data analysis); settings: E. faecalis OG1RF::pMSP7551+nisin (induced); THB, 20 h, 37°C; symbol
Description: as §1

[2] = system: vancomycin-resistant E. faecalis V583; experiment: Minimal inhibitory concentration, broth dilution; assay type: cell-based, Enterococcus faecalis; design: key: >: Mean MIC is above the tested concentration range (this value was set at 200 mg/L for data analysis); settings: THB, 20 h, 37°C, symbol
Description: as §1

[3] = system: E. faecalis OG1RF::pMSP7551; experiment: Minimal inhibitory concentration, broth dilution; assay type: cell-based, Enterococcus faecalis; design: key: >: Mean MIC is above the tested concentration range (this value was set at 200 mg/L for data analysis); settings: E. faecalis OG1RF::pMSP7551 (un-induced); THB, 20 h, 37°C; symbol
Description: as §1

[4] = system: E. faecalis TX5128 (gelE-, SprE-); experiment: Minimal inhibitory concentration, broth dilution; assay type: cell-based, Enterococcus faecalis; design: key: >: Mean MIC is above the tested concentration range (this value was set at 200 mg/L for data analysis); settings: THB, 20 h, 37°C
Description: as §1

E. faecalis OG1RF ebsG = experiment: Minimal inhibitory concentration, broth dilution; assay type: cell-based, Enterococcus faecalis; design: key: >: Mean MIC is above the tested concentration range (this value was set at 200 mg/L for data analysis); settings: THB, 20 h, 37°C, symbol
Description: as §1

[5] = system: E. faecalis OG1RF biofilm; experiment: Biofilm assay (Calgary device); assay type: cell-based, Enterococcus faecalis; settings: 24 h biofilm of OG1RF, peptide 100 mg/L, 4 h, CFU enumerated
Description: (§2) E. faecalis OG1RF, TX5427 or V583 were cultured in a Calgary device for 24h in THB. Biofilms were treated with peptides (100 mg/L) for 4h and surviving cells were sonicated and plated on THA for enumeration of CFUs.
(§3) Fig 3 Effect of GL13K peptides on biofilms of E. faecalis. Twenty-four hour biofilms of OG1RF; OG1RF dltA or V583 were treated with 100 mg/L of L-GL13K (L) or D-GL13K (D). Surviving CFU were enumerated from each peg and expressed relative to the mean CFU recovered from pegs of wild-type cells treated with buffer alone (OG1RF—C). Data from 2–4 experiments are expressed as mean ± SEM (N = 6–13). V583 was only treated with D-GL13K.

[6] = system: E. faecalis OG1RF dltA (TX5427) biofilm; experiment: Biofilm assay (Calgary device); assay type: cell-based, Enterococcus faecalis; settings: 24 h biofilm of OG1RF dltA, peptide 100 mg/L, 4 h, CFU relative to the wild-type biofilm
Description: as §2, §3

[7] = system: S. gordonii DL1 (wild-type); experiment: Minimal inhibitory concentration, broth dilution; assay type: cell-based, Streptococcus gordonii; design: key: >: Mean MIC is above the tested concentration range (this value was set at 200 mg/L for data analysis); settings: THB, 20 h, 37°C
Description: as §1

E. faecalis OG1RF = experiment: Bactericidal activity in PBS+0.05% Triton X-100; assay type: cell-based, Enterococcus faecalis; settings: PBS+0.05% Triton X-100, peptide 100 mg/L, 2 h, CFU on THA, N = 5
Description: The lysis assay followed an established protocol for bacterial autolysis with minor modifications. Exponentially growing cells were washed twice in PBS then washed once in ice-cold dH2O. The bacteria were incubated in PBS with 0.05% Triton X-100 and peptides at a concentration of 100 mg/L. OD600 was monitored spectrophotometrically for 180 min. In some experiments, the cells were incubated with the peptides for 2h in PBS+0.05% Triton X-100 and then cultured on THA to enumerate surviving cells.
Fig 2 Effect of GL13K peptides on Triton X-100 induced autolysis. E. faecalis OG1RF (A) or the autolysis-deficient strain TX5128 (B) were incubated in PBS with 0.05% Triton X-100 in the absence of peptide (control) or in the presence of 100 mg/L of L-GL13K or D-GL13K (D). The OD600 was recorded for 180 min and expressed as a percent of starting OD600 of the control sample. (C): Bactericidal activity of GL13K peptides in PBS+0.05% Triton X-100. E. faecalis OG1RF were incubated with 0.05% Triton X-100 in the absence of peptide (Ctrl) or with L-GL13K or D-GL13K for 2h. Surviving CFU were enumerated and are shown as mean ± SEM (N = 5). Peptide treated samples were compared to the untreated control by Kruskal-Wallis test with Dunn’s multiple comparison post-test. n.s., not significant.

[8] = system: E. faecalis OG1RF (wild-type); experiment: Minimal inhibitory concentration, broth dilution; assay type: cell-based, Enterococcus faecalis; design: key to MIC (mg/L): >: Mean MIC is above the tested concentration range (this value was set at 200 mg/L for data analysis); settings: THB, 20 h, 37°C
Description: as §1

wild-type E. faecalis = experiment: Bactericidal activity in sodium phosphate buffer; assay type: cell-based, Enterococcus faecalis; settings: 10^8 CFU/ml wild-type E. faecalis, no energy source, 10 mM sodium-phosphate pH 7.4, 2 h, 37°C, spotted on THA; D N = 4, L N = 3
Description: These assays were performed according to our established protocol with some modifications. Cells were washed three times in 0.9% NaCl and five μl of washed cells (10^9 CFU/ml) were added to the peptides diluted 2-fold (128 to 4 mg/L) in 45 μl of 10 mM sodium-phosphate, pH 7.4. The samples were incubated at 37°C for 2 h and 10 μl were then spotted on THA plates to assess bactericidal activity.

CC[C@H](C)[C@H](NC(=O)[C@H](CCCCN)NC(=O)CN)C(=O)N[C@H](C(=O)N[C@@H](CCCCN)C(=O)N[C@@H](CC(C)C)C(=O)N[C@@H](CCCCN)C(=O)N[C@@H](C)C(=O)N[C@@H](CO)C(=O)N[C@@H](CC(C)C)C(=O)N[C@@H](CCCCN)C(=O)N[C@@H](CC(C)C)C(=O)N[C@@H](CC(C)C)C(N)=O)[C@@H](C)CC [L-GL13K, Gly-Lys-Ile-Ile-Lys-Leu-Lys-Ala-Ser-Leu-Lys-Leu-Leu-NH2] (H-GKIIKLKASLKLL-NH2; N-terminus assumed)
MIC (S. gordonii DL1 dltA): 11 ± 3 µg/mL | MIC (S. gordonii DL1 atlS): 63 ± 8 µg/mL | MIC (mg/L) [1]: > | MIC (mg/L) [2]: > | MIC (mg/L) [3]: > | MIC (mg/L) ([4]; OD600, mean ± SEM): did not inhibit growth | MIC (mg/L) ([4]; symbol): > | MIC (mg/L) (E. faecalis OG1RF ebsG): > | Reduction of viable biofilm CFU [5]: ineffective | Reduction of viable biofilm CFU [6]: three orders of magnitude | MIC (mg/L) ([7]; OD600, mean ± SEM): resistant | MIC (mg/L) ([7]; symbol): > | Reduction of viable cells under autolysis conditions (E. faecalis OG1RF): small, yet non-significant, reduction of cell numbers | MIC ([8]; 1-5x10^5 CFU/ml, OD600, mean ± SEM): > 512 µg/mL | MIC (mg/L) ([8]; OD600, symbol): > | Peptide concentration required for complete killing (wild-type E. faecalis): 48 ± 23 mg/L
